Consider two molecules from ChEMBL document CHEMBL1129510, “Toward a novel metal-based chemotherapy against tropical diseases. 2. Synthesis and antimalarial activity in vitro and in vivo of new ruthenium- and rhodium-chloroquine complexes” (J Med Chem, 1996).

Holding throughout (assay type): functional, organism-based
For one experiment, the system named is Plasmodium berghei. Nature of the experiment: In vitro inhibitory activity against Plasmodium berghei.
In experiment [1] the test system is Plasmodium falciparum. The experiment is described as follows: In vitro inhibitory activity against Plasmodium falciparum FCB2.
Experiment [2] relates to Plasmodium falciparum. Nature of the experiment: In vitro inhibitory activity against Plasmodium falciparum FcB1.

pIC50: −log10 of the molar value.

For the molecule `CCN(CC)CCCC(C)Nc1ccnc2cc(Cl)ccc12` (centres undefined) [CHLOROQUINE PHOSPHATE], the negative logarithm of the IC50 (pIC50) with Plasmodium berghei (Plasmodium berghei) is 7.14.

With “Ruthenium-Chloroquine Complex[RuCl2(CQ)]2”, the pIC50 was 7.33 in the experiment with Plasmodium falciparum [1], 7.74 in the experiment on Plasmodium berghei and 7.98 with Plasmodium falciparum [2].

A word on the pIC50: it is the IC50 on a negative log10 scale, so that one unit is a factor of ten.
